Source: US20210078988A1, “MODULATORS OF INDOLEAMINE 2,3-DIOXYGENASE” (GLAXOSMITHKLINE INTELLECTUAL PROPERTY DEVELOPMENT LIMITED, priority 2017, published 2021)

Biological target: T1, indoleamine 2, 3-dioxygenase (IDO1) (Homo sapiens, UniProt P14902)
T1 construct: human peripheral blood mononuclear cells (PBMC) (PB003F; host or cells: human PBMC stimulated with IFN-gamma and LPS
Assay: PBMC IDO1 assay (kynurenine detection via mass spectrometry)
Assay type: cell-based
Conditions: human PBMC stimulated with IFN-γ and LPS, 2 days, kynurenine by mass spectrometry; read-out: IDO1 PBMC pIC50 (converted)
Method: Compounds of the present invention were tested via high-throughput cellular assays utilizing detection of kynurenine via mass spectrometry and cytotoxicity as end-points. For the mass spectrometry and cytotoxicity assays, human peripheral blood mononuclear cells (PBMC) (PB003F; AIICells®, Alameda, Calif.) were stimulated with human interferon-γ (IFN-γ) (Sigma-Aldrich Corporation, St. Louis, Mo.) and lipopolysaccharide from Salmonella minnesota (LPS) (Invivogen, San Diego, Calif.) to induce the expression of indoleamine 2, 3-dioxygenase (IDO1). Compounds with IDO1 inhibitory properties decreased the amount of kynurenine produced by the cells via the tryptophan catabolic pathway. Cellular toxicity due to the effect of compound treatment was measured using CellTiter-Glo® reagent (CTG) (Promega Corporation, Madison, Wis.), which is based on luminescent detection of ATP, an indicator of metabolically active cells.
In preparation for the assays, test compounds were serially diluted 3-fold in DMSO from a typical top concentration of 5 mM and plated at 0.5 μL in 384-well, polystyrene, clear bottom, tissue culture treated plates with lids (Greiner Bio-One, Kremsmunster, Austria) to generate 11-point dose response curves. Low control wells (0% kynurenine or 100% cytotoxicity) contained either 0.5 μL of DMSO in the presence of unstimulated (-IFN-γ/-LPS) PBMCs for the mass spectrometry assay or 0.5 μL of DMSO in the absence of cells for the cytotoxicity assay, and high control wells (100% kynurenine or 0% cytotoxicity) contained 0.5 μL of DMSO in the presence of stimulated (+IFN-γ/+LPS) PBMCs for both the mass spectrometry and cytotoxicity assays.
Frozen stocks of PBMCs were washed and recovered in RPMI 1640 medium (Thermo Fisher Scientific, Inc., Waltham, Mass.) supplemented with 10% v/v heat-inactivated fetal bovine serum (FBS) (Thermo Fisher Scientific, Inc., Waltham, Mass.), and 1× penicillin-streptomycin antibiotic solution (Thermo Fisher Scientific, Inc., Waltham, Mass.). The cells were diluted to 1,000,000 cells/mL in the supplemented RPMI 1640 medium. 50 μL of either the cell suspension, for the mass spectrometry assay, or medium alone, for the cytotoxicity assay, were added to the low control wells, on the previously prepared 384-well compound plates, resulting in 50,000 cells/well or 0 cells/well respectively. IFN-γ and LPS were added to the remaining cell suspension at final concentrations of 100 ng/ml and 50 ng/ml respectively, and 50 μL of the stimulated cells were added to all remaining wells on the 384-well compound plates. The plates, with lids, were then placed in a 37° C., 5% CO2 humidified incubator for 2 days.
Following incubation, the 384-well plates were removed from the incubator and allowed to equilibrate to room temperature for 30 minutes. For the cytotoxicity assay, CellTiter-Glo® was prepared according to the manufacturer's instructions, and 40 μL were added to each plate well. After a twenty minute incubation at room temperature, luminescence was read on an EnVision® Multilabel Reader (PerkinElmer Inc., Waltham, Mass.). For the mass spectrometry assay, 10 μL of supernatant from each well of the compound-treated plates were added to 40 μL of acetonitrile, containing 10 μM of an internal standard for normalization, in 384-well, polypropylene, V-bottom plates (Greiner Bio-One, Kremsmunster, Austria) to extract the organic analytes. Following centrifugation at 2000 rpm for 10 minutes, 10 μL from each well of the acetonitrile extraction plates were added to 90 μL of sterile, distilled H2O in 384-well, polypropylene, V-bottom plates for analysis of kynurenine and the internal standard on the RapidFire 300 (Agilent Technologies, Santa Clara, Calif.) and 4000 QTRAP MS (SCIEX, Framingham, Mass.). MS data were integrated using Agilent Technologies' RapidFire Integrator software, and data were normalized for analysis as a ratio of kynurenine to the internal standard. […]

T1 sequence (P14902 whole entry): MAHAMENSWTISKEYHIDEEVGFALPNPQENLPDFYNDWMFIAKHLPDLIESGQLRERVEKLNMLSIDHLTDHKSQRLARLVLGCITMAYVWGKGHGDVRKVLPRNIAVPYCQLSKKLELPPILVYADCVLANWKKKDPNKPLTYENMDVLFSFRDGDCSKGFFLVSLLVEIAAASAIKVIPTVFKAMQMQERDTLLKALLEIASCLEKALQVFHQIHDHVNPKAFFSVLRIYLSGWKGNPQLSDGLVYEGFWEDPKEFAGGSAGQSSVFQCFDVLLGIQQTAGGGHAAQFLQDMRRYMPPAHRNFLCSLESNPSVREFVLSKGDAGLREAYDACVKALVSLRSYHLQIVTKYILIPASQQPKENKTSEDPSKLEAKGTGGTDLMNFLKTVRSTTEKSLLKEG

IC50 [nM]	Compound
7.94	CC(C)CC(CC1CCN(C(=O)OC(C)(C)C)CC1)NC(=O)c1ccc(Br)s1 (centres unmarked) [Example 28, tert-butyl 4-(2-(5-bromothiophene-2-carboxamido)-4-methylpentyl)piperidine-1-carboxylate]
1.58	COc1ccc([C@H](CC2CCN(C(=O)OC(C)(C)C)CC2)NC(=O)c2ccc(Br)s2)cn1 [Example 29, tert-butyl (S)-4-(2-(5-bromothiophene-2-carboxamido)-2-(6-methoxypyridin-3-yl)ethyl)piperidine-1-carboxylate]
10	CCc1ccc(C(=O)N[C@@H](CC2CCN(C(=O)OC(C)(C)C)CC2)c2ccccc2)s1 [Example 30, tert-butyl (S)-4-(2-(5-ethylthiophene-2-carboxamido)-2-phenylethyl)piperidine-1-carboxylate]
7.94	CC(C)(C)OC(=O)N1CCC(CC(NC(=O)c2ccc(Br)s2)C2CCCCC2)CC1 (centres unmarked) [Example 31, tert-butyl 4-(2-(5-bromothiophene-2-carboxamido)-2-cyclohexylethyl)piperidine-1-carboxylate]
10	CC(C)OC(=O)N1CCC(C[C@H](NC(=O)c2ccc(Cl)cc2)c2ccccc2)CC1 [Example 32, isopropyl (S)-4-(2-(4-chlorobenzamido)-2-phenylethyl)piperidine-1-carboxylate]
7.94	CCc1ccc(C(=O)N[C@@H](CC2CCN(C(=O)OC(C)C)CC2)c2ccccc2)s1 [Example 33, isopropyl (S)-4-(2-(5-ethylthiophene-2-carboxamido)-2-phenylethyl)piperidine-1-carboxylate]
3.98	C=CC[C@H](CC1CCN(C(=O)OC(C)(C)C)CC1)NC(=O)c1ccc(Cl)s1 [Example 34, tert-butyl (R)-4-(2-(5-chlorothiophene-2-carboxamido)pent-4-en-1-yl)piperidine-1-carboxylate]
6.31	CC(C)CC(CC1CCN(C(=O)Oc2ccccc2)CC1)NC(=O)c1ccc(Cl)s1 (centres unmarked) [Example 35, phenyl 4-(2-(5-chlorothiophene-2-carboxamido)-4-methylpentyl)piperidine-1-carboxylate]
1.58	COc1ccc([C@H](CC2CCN(C(=O)Oc3ccccc3)CC2)NC(=O)c2ccc(Cl)s2)cn1 [Example 36, phenyl (S)-4-(2-(5-chlorothiophene-2-carboxamido)-2-(6-methoxypyridin-3-yl)ethyl)piperidine-1-carboxylate]
2.51	COc1ccc([C@H](CC2CCN(C(=O)Oc3ccccc3)CC2)NC(=O)c2ccc(Cl)cc2)cn1 [Example 37, phenyl (S)-4-(2-(4-chlorobenzamido)-2-(6-methoxypyridin-3-yl)ethyl)piperidine-1-carboxylate]
5.01	C[C@H](CC1CCN(C(=O)OC(C)(C)C)CC1)NC(=O)c1ccc(Cl)s1 [Example 38, tert-butyl (R)-4-(2-(5-chlorothiophene-2-carboxamido)propyl)piperidine-1-carboxylate]
5.01	COc1ccc([C@H](CC2CCN(C(=O)CC(C)(C)C)CC2)NC(=O)c2ccc(Cl)s2)cn1 [Example 39, (S)-5-chloro-N-(2-(1-(3,3-dimethylbutanoyl)piperidin-4-yl)-1-(6-methoxypyridin-3-yl)ethyl)thiophene-2-carboxamide]
3.98	COc1ccc([C@H](CC2CCN(C(=O)NC(C)(C)C)CC2)NC(=O)c2ccc(Cl)s2)cn1 [Example 40, (S)-N-(tert-butyl)-4-(2-(5-chlorothiophene-2-carboxamido)-2-(6-methoxypyridin-3-yl)ethyl)piperidine-1-carboxamide]
3.98	COc1ccc([C@H](CC2CCN(S(=O)(=O)CC(C)C)CC2)NC(=O)c2ccc(Cl)s2)cn1 [Example 41, (S)-5-chloro-N-(2-(1-(isobutylsulfonyl)piperidin-4-yl)-1-(6-methoxypyridin-3-yl)ethyl)thiophene-2-carboxamide]
5.01	C[C@H](CC1CCN(C(=O)Oc2ccccc2)CC1)NC(=O)c1ccc(Cl)s1 [Example 42, phenyl (R)-4-(2-(5-chlorothiophene-2-carboxamido)propyl)piperidine-1-carboxylate]
1	COc1ccc([C@H](CC2CCN(C(=O)C(F)(F)c3ccccc3)CC2)NC(=O)c2ccc(Cl)s2)cn1 [Example 43, (S)-5-chloro-N-(2-(1-(2,2-difluoro-2-phenylacetyl)piperidin-4-yl)-1-(6-methoxypyridin-3-yl)ethyl)thiophene-2-carboxamide]
3.16	CCN(CC)c1nnc(C(CC2CCN(C(=O)OC(C)(C)C)CC2)NC(=O)c2ccc(Cl)s2)o1 (centres unmarked) [Example 44, tert-butyl 4-(2-(5-chlorothiophene-2-carboxamido)-2-(5-(diethylamino)-1,3,4-oxadiazol-2-yl)ethyl)piperidine-1-carboxylate]
3.16	CCOC(=O)N1CCC(CC(NC(=O)c2ccc(Cl)s2)c2nnc(N(CC)CC)o2)CC1 (centres unmarked) [Example 45, ethyl 4-(2-(5-chlorothiophene-2-carboxamido)-2-(5-(diethylamino)-1,3,4-oxadiazol-2-yl)ethyl)piperidine-1-carboxylate]
3.98	Cc1ccc(C(=O)NC(CC2CCN(C(=O)OC(C)(C)C)CC2)C(C)C)s1 (centres unmarked) [Example 46, tert-butyl 4-(3-methyl-2-(5-methylthiophene-2-carboxamido)butyl)piperidine-1-carboxylate]
3.98	CCC(CC)c1nc(C(CC2CCN(C(=O)OC(C)(C)C)CC2)NC(=O)c2ccc(Cl)s2)no1 (centres unmarked) [Example 47, tert-butyl 4-(2-(5-chlorothiophene-2-carboxamido)-2-(5-(pentan-3-yl)-1,2,4-oxadiazol-3-yl)ethyl)piperidine-1-carboxylate]
3.98	CCN(CC)c1nnc(C(CC2CCN(C(=O)OC(C)(C)C)CC2)NC(=O)c2ccc(C)s2)o1 (centres unmarked) [Example 48, tert-butyl 4-(2-(5-(diethylamino)-1,3,4-oxadiazol-2-yl)-2-(5-methylthiophene-2-carboxamido)ethyl)piperidine-1-carboxylate]
6.31	CCc1ccc(C(=O)NC(CC2CCN(C(=O)OC(C)(C)C)CC2)C(C)C)s1 (centres unmarked) [Example 49, tert-butyl 4-(2-(5-ethylthiophene-2-carboxamido)-3-methylbutyl)piperidine-1-carboxylate]
6.31	CCN(c1nnc(C(CC2CCN(C(=O)OC(C)(C)C)CC2)NC(=O)c2ccc(C)s2)o1)C1CC1 (centres unmarked) [Example 50, tert-butyl 4-(2-(5-(cyclopropyl(ethyl)amino)-1,3,4-oxadiazol-2-yl)-2-(5-methylthiophene-2-carboxamido)ethyl)piperidine-1-carboxylate]
7.94	Cc1ccc(C(=O)NC(CC2CCN(C(=O)Oc3ccccc3)CC2)c2ccccc2)s1 (centres unmarked) [Example 51, phenyl 4-(2-(5-methylthiophene-2-carboxamido)-2-phenylethyl)piperidine-1-carboxylate]
10	CCN(C)c1nnc(C(CC2CCN(C(=O)OC(C)(C)C)CC2)NC(=O)c2ccc(C)s2)o1 (centres unmarked) [Example 52, tert-butyl 4-(2-(5-(ethyl(methyl)amino)-1,3,4-oxadiazol-2-yl)-2-(5-methylthiophene-2-carboxamido)ethyl)piperidine-1-carboxylate]
3.16	CCN(CC)c1nnc(C(CC2CCN(C(=O)Oc3ccccc3)CC2)NC(=O)c2ccc(Cl)s2)o1 (centres unmarked) [Example 53, phenyl 4-(2-(5-chlorothiophene-2-carboxamido)-2-(5-(diethylamino)-1,3,4-oxadiazol-2-yl)ethyl)piperidine-1-carboxylate]
